Data reported in ChEMBL document CHEMBL2086253, “Synthesis and biological evaluation of cyanoguanidine derivatives of loratadine” (Bioorg Med Chem Lett, 2012).
Active and inactive are the calls of the source. The calls are words filed in the database; no cut-off is given here.

Tests used:
[1] = system: Mus musculus; experiment: Antiinflammatory activity in Kunming mouse assessed as inhibition of xylene-induced ear edema at 4 mg/kg, ip for 5 days relative to control; format: functional; settings: 120 h, route intraperitoneal
[2] = system: HT-29; experiment: Cytotoxicity against human HT-29 cells after 72 hrs by crystal violet staining; format: functional, cell-based; settings: HT-29, 72 h
[3] = system: MCF7; experiment: Cytotoxicity against human MCF7 cells after 72 hrs by crystal violet staining; format: functional, cell-based; settings: MCF7, 72 h
[4] = system: MDA-MB-231; experiment: Cytotoxicity against human MDA-MB-231 cells after 72 hrs by crystal violet staining; format: functional, cell-based; settings: MDA-MB-231, 72 h
[5] = system: Mus musculus; experiment: Antiinflammatory activity in Kunming mouse assessed as inhibition of xylene-induced ear edema at 30 mg/kg, ip for 5 days relative to control; format: functional; settings: 120 h, route intraperitoneal
[6] = target: T1, Prostaglandin G/H synthase 1 (Ovis aries) (UniProt P05979); experiment: Inhibition of isolated ovine COX-1 at 10 uM by ELISA
T1 sequence (whole entry): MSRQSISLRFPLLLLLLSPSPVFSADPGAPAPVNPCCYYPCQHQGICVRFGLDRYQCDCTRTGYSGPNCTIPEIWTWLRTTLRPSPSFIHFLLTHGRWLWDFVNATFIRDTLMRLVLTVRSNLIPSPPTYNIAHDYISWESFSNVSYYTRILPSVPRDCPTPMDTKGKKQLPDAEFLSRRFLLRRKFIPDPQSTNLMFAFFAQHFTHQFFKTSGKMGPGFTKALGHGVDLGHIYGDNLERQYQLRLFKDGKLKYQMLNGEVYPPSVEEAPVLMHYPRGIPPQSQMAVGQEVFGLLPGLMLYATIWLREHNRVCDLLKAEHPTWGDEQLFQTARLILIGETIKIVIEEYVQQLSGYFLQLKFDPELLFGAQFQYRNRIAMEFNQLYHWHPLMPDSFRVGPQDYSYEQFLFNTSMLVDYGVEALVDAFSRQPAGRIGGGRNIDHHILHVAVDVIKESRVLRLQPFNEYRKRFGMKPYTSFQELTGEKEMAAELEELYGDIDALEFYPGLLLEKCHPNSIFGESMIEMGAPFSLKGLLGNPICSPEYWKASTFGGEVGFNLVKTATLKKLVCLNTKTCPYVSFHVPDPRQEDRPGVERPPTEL

[7] = system: MDA-MB-231; experiment: Ratio of loratadine IC50 to compound IC50 for human MDA-MB-231 cells; format: functional
[8] = system: HT-29; experiment: Ratio of 5-fluorouracil IC50 to compound IC50 for human HT-29 cells; format: functional
[9] = system: MCF7; experiment: Cytotoxicity against human MCF7 cells at 0.63 to 10 uM up to 140 hrs by crystal violet staining; format: functional, cell-based
[10] = system: HT-29; experiment: Ratio of loratadine IC50 to compound IC50 for human HT-29 cells; format: functional
[11] = system: MCF7; experiment: Ratio of loratadine IC50 to compound IC50 for human MCF7 cells; format: functional
[12] = system: MDA-MB-231; experiment: Ratio of 5-fluorouracil IC50 to compound IC50 for human MDA-MB-231 cells; format: functional
[13] = system: HT-29; experiment: Cytotoxicity against human HT-29 cells at 0.63 to 10 uM up to 140 hrs by crystal violet staining; format: functional, cell-based
[14] = system: MCF7; experiment: Ratio of 5-fluorouracil IC50 to compound IC50 for human MCF7 cells; format: functional

N#C/N=C(/NC1CCCCC1)N1CCC(=C2c3ccc(Cl)cc3CCc3cccnc32)CC1
inhibition in vivo at 4 mg/kg [1]: 17.4%
IC50 [2]: 4 µM
IC50 [3]: 3.9 µM
IC50 [4]: 1.9 µM

N#C/N=C(/NCCc1ccc2c(c1)OCO2)N1CCC(=C2c3ccc(Cl)cc3CCc3cccnc32)CC1
inhibition in vivo at 4 mg/kg [1]: 13%
IC50 [2]: 6.5 µM
IC50 [3]: 8 µM
IC50 [4]: 12.9 µM

O=c1[nH]cc(F)c(=O)[nH]1 [FLUOROURACIL]
IC50 [3]: 4.7 µM

N#C/N=C(/NCc1ccccc1)N1CCC(=C2c3ccc(Cl)cc3CCc3cccnc32)CC1
inhibition in vivo at 4 mg/kg [1]: 13%
IC50 [2]: 3.1 µM
IC50 [3]: 2.9 µM
IC50 [4]: 2.7 µM

CC(C)Cc1ccc(C(C)C(=O)O)cc1 (centres undefined) [IBUPROFEN]
inhibition in vivo at 30 mg/kg [5]: 39.1%
inhibition in vivo at 4 mg/kg [1]: 8.22%

COc1ccc(CCN/C(=N/C#N)N2CCC(=C3c4ccc(Cl)cc4CCc4cccnc43)CC2)cc1OC
inhibition in vivo at 4 mg/kg [1]: 21.7%
IC50 [2]: 5.7 µM
IC50 [3]: 7.1 µM
IC50 [4]: 18.2 µM

CCCCN/C(=N/C#N)N1CCC(=C2c3ccc(Cl)cc3CCc3cccnc32)CC1
inhibition in vivo at 4 mg/kg [1]: 17.4%
IC50 [2]: 4 µM
IC50 [3]: 3.9 µM
IC50 [4]: 3.1 µM

CC(N/C(=N/C#N)N1CCC(=C2c3ccc(Cl)cc3CCc3cccnc32)CC1)c1ccccc1 (centres undefined)
inhibition in vivo at 4 mg/kg [1]: 26.1%
IC50 [2]: 3.7 µM
IC50 [3]: 4 µM
inhibition [6]: 4.9%
IC50 [4]: 6.9 µM

COc1ccc2c(c1)c(CC(=O)O)c(C)n2C(=O)c1ccc(Cl)cc1
inhibition [6]: 56%

N#C/N=C(/NCCc1ccccc1)N1CCC(=C2c3ccc(Cl)cc3CCc3cccnc32)CC1
inhibition in vivo at 4 mg/kg [1]: 13%
IC50 [2]: 3.2 µM
IC50 [3]: 2.3 µM
IC50 [4]: 2.6 µM

CCCCCCCCN/C(=N/C#N)N1CCC(=C2c3ccc(Cl)cc3CCc3cccnc32)CC1
Ratio IC50 [7]: 2
Ratio IC50 [8]: 2
Activity [9]: Active
Ratio IC50 [10]: 2
inhibition in vivo at 4 mg/kg [1]: 15.6%
IC50 [2]: 2 µM
IC50 [3]: 1.4 µM
Ratio IC50 [11]: 2
Ratio IC50 [12]: 2
Activity [13]: Active
Ratio IC50 [14]: 2
IC50 [4]: 4.1 µM

CCCCCN/C(=N/C#N)N1CCC(=C2c3ccc(Cl)cc3CCc3cccnc32)CC1
inhibition in vivo at 4 mg/kg [1]: 13%
IC50 [2]: 4.4 µM
IC50 [3]: 3.5 µM
IC50 [4]: 1.7 µM
